Data taken from patent publication EP4667467A1, “PROTAC DEGRADERS OF MLLT1 AND/OR MLLT3” (Dark Blue Therapeutics Ltd, priority 2024, dated 2025).

Target: T1, MLLT1 (Homo sapiens, UniProt Q03111)
T1 construct: endogenous in cells; host or cells: MV4-11 (ATCC CRL-9591)
T1 sequence (Q03111 1-559): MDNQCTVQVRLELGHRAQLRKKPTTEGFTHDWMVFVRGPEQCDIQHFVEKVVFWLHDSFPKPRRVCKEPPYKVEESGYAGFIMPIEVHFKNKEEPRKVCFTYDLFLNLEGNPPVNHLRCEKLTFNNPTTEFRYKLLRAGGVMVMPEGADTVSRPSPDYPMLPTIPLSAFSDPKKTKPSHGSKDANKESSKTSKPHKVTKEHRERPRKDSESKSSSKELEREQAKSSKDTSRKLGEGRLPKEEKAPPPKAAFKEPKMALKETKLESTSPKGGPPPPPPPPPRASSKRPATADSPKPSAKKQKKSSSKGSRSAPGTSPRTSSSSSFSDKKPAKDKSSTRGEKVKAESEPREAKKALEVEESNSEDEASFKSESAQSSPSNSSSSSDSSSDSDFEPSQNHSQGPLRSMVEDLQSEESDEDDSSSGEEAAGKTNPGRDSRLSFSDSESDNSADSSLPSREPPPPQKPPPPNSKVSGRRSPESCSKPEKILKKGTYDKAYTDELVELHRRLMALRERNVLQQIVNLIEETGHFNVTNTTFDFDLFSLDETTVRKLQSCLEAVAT
Test: MLLT1 Degradation Assay (JESS automated chemiluminescent detection, MV4-11 cells)
Type: cell-based
Conditions: 24h, with respect to DMSO control; for MLLT1 % Degradation @ 0.01 µM: 0.01 µM (10 nM) test compound; for MLLT1 % Degradation @ 0.1 µM: 0.1 µM (100 nM) test compound; for MLLT 1 % Degradation @ 1 µM: 1 µM (1000 nM) test compound
Description: MLLT1 degradation efficacy of compounds were tested in an automated chemiluminescent detection system (JESS, Cat# 004-650). […] 10 mM DMSO stocks were prepared, and cells were treated with three concentrations of test compounds viz. 1000, 100 and 10 nM at a final DMSO concentration of 0.1% and incubated for 24h at 37°C, 5% CO2. […] Post run, data were analysed using "Compass for SW" software for chemiluminescent detection. The peak area for each band was used for the calculation of MLLT1 degradation with respect to DMSO control. Data is shown as "MLLT1 % degradation".

With CN1CCC[C@@H]1c1cc2cnc(NC(=O)c3ccc(-c4cnn(CCCC5CCN(c6cccc(C(=O)N[C@H]7CCC(=O)NC7=O)n6)CC5)c4)cc3)cc2[nH]1 [Example 60, N-((S)-2,6-dioxopiperidin-3-yl)-6-(4-(3-(4-(4-((2-((R)-1-methylpyrrolidin-2-yl)-1H-pyrrolo[3,2-c]pyridin-6-yl)carbamoyl)phenyl)-1H-pyrazol-1-yl)propyl)piperidin-1-yl)picolinamide] the “MLLT1 % Degradation @ 0.01 µM” value was “A (Category A: A ≥ 75% degradation)”, the “MLLT1 % Degradation @ 0.1 µM” value was “A (Category A: A ≥ 75% degradation)” and the “MLLT 1 % Degradation @ 1 µM” value was “A (Category A: A ≥ 75% degradation)”.

With CN1CCC[C@@H]1c1cc2cnc(NC(=O)c3ccc(CCCC#Cc4cccc5c4CN(C4CCC(=O)NC4=O)C5=O)cc3)cc2[nH]1 (stereo partly drawn) [Example 55, 4-(5-(2-(2,6-dioxopiperidin-3-yl)-1-oxoisoindolin-4-yl)pent-4-yn-1-yl)-N-(2-((R)-1-methylpyrrolidin-2-yl)-1H-pyrrolo[3,2-c]pyridin-6-yl)benzamide] the “MLLT1 % Degradation @ 0.01 µM” value was “A (Category A: A ≥ 75% degradation)”, the “MLLT1 % Degradation @ 0.1 µM” value was “A (Category A: A ≥ 75% degradation)” and the “MLLT 1 % Degradation @ 1 µM” value was “A (Category A: A ≥ 75% degradation)”.

CN1CCC[C@@H]1c1[nH]c2cc(NC(=O)c3ccc(CCCCC#Cc4cccc5c4CN(C4CCC(=O)NC4=O)C5=O)nc3)ncc2c1Cl (stereo partly drawn) [Example 71, N-(3-chloro-2-((R)-1-methylpyrrolidin-2-yl)-1H-pyrrolo[3,2-c]pyridin-6-yl)-6-(6-(2-(2,6-dioxopiperidin-3-yl)-1-oxoisoindolin-4-yl)hex-5-yn-1-yl) nicotinamide] was tested, and the “MLLT1 % Degradation @ 0.01 µM” value was “A (Category A: A ≥ 75% degradation)”, the “MLLT1 % Degradation @ 0.1 µM” value was “A (Category A: A ≥ 75% degradation)” and the “MLLT 1 % Degradation @ 1 µM” value was “B (Category B: 50% ≤ B < 75% degradation)”.

For CCN1CCC[C@@H]1c1cc2cnc(NC(=O)c3ccc(N4CCC(CC#Cc5cccc6c5CN(C5CCC(=O)NC5=O)C6=O)CC4)nc3)cc2[nH]1 (stereo partly drawn) [Example 73, 6-(4-(3-(2-(2,6-dioxopiperidin-3-yl)-1-oxoisoindolin-4-yl)prop-2-yn-1-yl)piperidin-1-yl)-N-(2-((R)-1-ethylpyrrolidin-2-yl)-1H-pyrrolo[3,2-c]pyridin-6-yl)nicotinamide], the “MLLT1 % Degradation @ 0.01 µM” value was “B (Category B: 50% ≤ B < 75% degradation)”, the “MLLT1 % Degradation @ 0.1 µM” value was “A (Category A: A ≥ 75% degradation)” and the “MLLT 1 % Degradation @ 1 µM” value was “B (Category B: 50% ≤ B < 75% degradation)”.

CN1CCC[C@@H]1c1cc2cnc(NC(=O)c3cccc(OCCCCCCCC#Cc4cccc5c4C(=O)N(C4CCC(=O)NC4=O)C5=O)c3)cc2[nH]1 (stereo partly drawn) [Example 26, 3-((9-(2-(2,6-dioxopiperidin-3-yl)-1,3-dioxoisoindolin-4-yl)non-8-yn-1-yl)oxy)-N-(2-((R)-1-methylpyrrolidin-2-yl)-1H-pyrrolo[3,2-c]pyridin-6-yl)benzamide] was tested, and the “MLLT1 % Degradation @ 0.01 µM” value was “D (Category D: D < 25% degradation)”, the “MLLT1 % Degradation @ 0.1 µM” value was “D (Category D: D < 25% degradation)” and the “MLLT 1 % Degradation @ 1 µM” value was “C (Category C: 25% ≤ C < 50% degradation)”.

In the case of CN1CCC[C@@H]1c1cc2cnc(NC(=O)c3ccc(-c4cnn(CCCC5CCN(c6cccc7c6C(=O)N(C6CCC(=O)NC6=O)C7=O)CC5)c4)cc3)cc2[nH]1 (stereo partly drawn) [Example 34, 4-[1-(3-{1-[2-(2,6-dioxopiperidin-3-yl)-1,3-dioxoisoindol-4-yl]piperidin-4-yl}propyl)pyrazol-4-yl]-N-{2-[(2R)-1-methylpyrrolidin-2-yl]-1H-pyrrolo[3,2-c]pyridin-6-yl}benzamide], the “MLLT1 % Degradation @ 0.1 µM” value is reported as “A (Category A: A ≥ 75% degradation)” and the “MLLT 1 % Degradation @ 1 µM” value is reported as “A (Category A: A ≥ 75% degradation)”.

With CN1CCC[C@@H]1c1cc2cnc(NC(=O)c3cccc(C4CCN(c5cccc6c5C(=O)N(C5CCC(=O)NC5=O)C6=O)CC4)c3)cc2[nH]1 (stereo partly drawn) [Example 14, 3-(1-(2-(2,6-dioxopiperidin-3-yl)-1,3-dioxoisoindolin-4-yl)piperidin-4-yl)-N-(2-((R)-1-methylpyrrolidin-2-yl)-1H-pyrrolo[3,2-c]pyridin-6-yl)benzamide] the “MLLT1 % Degradation @ 0.01 µM” value was “B (Category B: 50% ≤ B < 75% degradation)”, the “MLLT1 % Degradation @ 0.1 µM” value was “A (Category A: A ≥ 75% degradation)” and the “MLLT 1 % Degradation @ 1 µM” value was “A (Category A: A ≥ 75% degradation)”.

In the case of CN1CCC[C@@H]1c1cc2cnc(NC(=O)c3ccc(N4CCC(c5ccc(-c6cccc7c6CN(C6CCC(=O)NC6=O)C7=O)cc5)CC4)nc3)cc2[nH]1 (stereo partly drawn) [Example 67, 6-(4-(4-(2-(2,6-dioxopiperidin-3-yl)-1-oxoisoindolin-4-yl)phenyl)piperidin-1-yl)-N-(2-((R)-1-methylpyrrolidin-2-yl)-1H-pyrrolo[3,2-c]pyridin-6-yl)nicotinamide], the “MLLT1 % Degradation @ 0.01 µM” value is reported as “A (Category A: A ≥ 75% degradation)”, the “MLLT1 % Degradation @ 0.1 µM” value is reported as “A (Category A: A ≥ 75% degradation)” and the “MLLT 1 % Degradation @ 1 µM” value is reported as “A (Category A: A ≥ 75% degradation)”.

“3-(1-(3-(1-(2-(2,6-dioxopiperidin-3-yl)-1,3-dioxoisoindolin-4-yl)piperidin-4-yl)propyl)-1H-pyrazol-4-yl)-N-(2-((R)-1-methylpyrrolidin-2-yl)-1H-pyrrolo[3,2-c]pyridin-6-yl)benzamide [Example 47]” was tested, and the “MLLT1 % Degradation @ 0.01 µM” value was “C (Category C: 25% ≤ C < 50% degradation)”, the “MLLT1 % Degradation @ 0.1 µM” value was “B (Category B: 50% ≤ B < 75% degradation)” and the “MLLT 1 % Degradation @ 1 µM” value was “A (Category A: A ≥ 75% degradation)”.

In the case of CN1CCC[C@@H]1c1cc2cnc(NC(=O)c3ccc(CCCC#Cc4cccc5c4CN(C4CCC(=O)NC4=O)C5=O)nc3)cc2[nH]1 (stereo partly drawn) [Example 12, 6-(5-(2-(2,6-dioxopiperidin-3-yl)-1-oxoisoindolin-4-yl)pent-4-yn-1-yl)-N-(2-((R)-1-methylpyrrolidin-2-yl)-1H-pyrrolo[3,2-c]pyridin-6-yl)nicotinamide], the “MLLT1 % Degradation @ 0.01 µM” value is reported as “B (Category B: 50% ≤ B < 75% degradation)”, the “MLLT1 % Degradation @ 0.1 µM” value is reported as “A (Category A: A ≥ 75% degradation)” and the “MLLT 1 % Degradation @ 1 µM” value is reported as “A (Category A: A ≥ 75% degradation)”.

For CN1CCC[C@@H]1c1cc2cnc(NC(=O)c3ccc(N4CCC(CC#Cc5cccc6c5CN(C5CCC(=O)NC5=O)C6=O)CC4)nc3)cc2[nH]1 (stereo partly drawn) [Example 16, 6-(4-(3-(2-(2,6-dioxopiperidin-3-yl)-1-oxoisoindolin-4-yl)prop-2-yn-1-yl)piperidin-1-yl)-N-(2-((R)-1-methylpyrrolidin-2-yl)-1H-pyrrolo[3,2-c]pyridin-6-yl)nicotinamide], the “MLLT1 % Degradation @ 0.01 µM” value was “A (Category A: A ≥ 75% degradation)”, the “MLLT1 % Degradation @ 0.1 µM” value was “A (Category A: A ≥ 75% degradation)” and the “MLLT 1 % Degradation @ 1 µM” value was “B (Category B: 50% ≤ B < 75% degradation)”.

CN1CCC[C@@H]1c1cc2cnc(NC(=O)c3ccc(N4CCN(CC5CCN(c6cccc7c6C(=O)N(C6CCC(=O)NC6=O)C7=O)CC5)CC4)nc3)cc2[nH]1 (stereo partly drawn) [Example 5, 6-(4-((1-(2-(2,6-dioxopiperidin-3-yl)-1,3-dioxoisoindolin-4-yl)piperidin-4-yl)methyl)piperazin-1-yl)-N-(2-((R)-1-methylpyrrolidin-2-yl)-1H-pyrrolo[3,2-c]pyridin-6-yl)nicotinamide] was tested, and the “MLLT1 % Degradation @ 0.01 µM” value was “B (Category B: 50% ≤ B < 75% degradation)”, the “MLLT1 % Degradation @ 0.1 µM” value was “A (Category A: A ≥ 75% degradation)” and the “MLLT 1 % Degradation @ 1 µM” value was “A (Category A: A ≥ 75% degradation)”.

In the case of CN1CCC[C@@H]1c1cc2cnc(NC(=O)c3ccc(-c4cnn(CCCC#Cc5cccc(C(=O)N[C@H]6CCC(=O)NC6=O)n5)c4)cc3)cc2[nH]1 [Example 62, N-((S)-2,6-dioxopiperidin-3-yl)-6-(5-(4-(4-((2-((R)-1-methylpyrrolidin-2-yl)-1H-pyrrolo[3,2-c]pyridin-6-yl)carbamoyl)phenyl)-1H-pyrazol-1-yl)pent-1-yn-1-yl) picolinamide], the “MLLT1 % Degradation @ 0.01 µM” value is reported as “B (Category B: 50% ≤ B < 75% degradation)”, the “MLLT1 % Degradation @ 0.1 µM” value is reported as “A (Category A: A ≥ 75% degradation)” and the “MLLT 1 % Degradation @ 1 µM” value is reported as “B (Category B: 50% ≤ B < 75% degradation)”.

In the case of CN1CCC[C@H]1c1cc2cnc(NC(=O)c3ccc(CCCNc4cccc5c4C(=O)N(C4CCC(=O)NC4=O)C5=O)cc3)cc2[nH]1 (stereo partly drawn) [Example 37, 4-(3-{[2-(2,6-dioxopiperidin-3-yl)-1,3-dioxoisoindol-4-yl]amino}propyl)-N-{2-[(2S)-1-methylpyrrolidin-2-yl]-1H-pyrrolo[3,2-c]pyridin-6-yl}benzamide], the “MLLT1 % Degradation @ 0.01 µM” value is reported as “B (Category B: 50% ≤ B < 75% degradation)”, the “MLLT1 % Degradation @ 0.1 µM” value is reported as “A (Category A: A ≥ 75% degradation)” and the “MLLT 1 % Degradation @ 1 µM” value is reported as “A (Category A: A ≥ 75% degradation)”.

In the case of CN1CCC[C@@H]1c1cc2cnc(NC(=O)c3ccc(-c4cnn(CCCC#Cc5cccc6c5CN(C5CCC(=O)NC5=O)C6=O)c4)cc3)cc2[nH]1 (stereo partly drawn) [Example 21, 4-(1-(5-(2-(2,6-dioxopiperidin-3-yl)-1-oxoisoindolin-4-yl)pent-4-yn-1-yl)-1H-pyrazol-4-yl)-N-(2-((R)-1-methylpyrrolidin-2-yl)-1H-pyrrolo[3,2-c]pyridin-6-yl)benzamide], the “MLLT1 % Degradation @ 0.01 µM” value is reported as “A (Category A: A ≥ 75% degradation)”, the “MLLT1 % Degradation @ 0.1 µM” value is reported as “A (Category A: A ≥ 75% degradation)” and the “MLLT 1 % Degradation @ 1 µM” value is reported as “B (Category B: 50% ≤ B < 75% degradation)”.
